For five compounds, Ki results are on record in US12559529B2, “NPY2 receptor agonists” (Boehringer Ingelheim International GmbH, priority 2019, dated 2026).

*1 amine or outer side, *2 acyl side, *3 side chain or, on linkers, in order; H or OH if unused. Where a SMILES comes first, the peptide text is derived from it. Side-chain parts run from the residue outwards. The star is where a group is joined. C18 diacid = O=C(O)CCCCCCCCCCCCCCCCC(=O)*; γGlu = O=C(O)[C@H](CCC(=O)[*:2])N[*:1]; Isovaleryl = CC(C)CC(=O)*; AEEA = NCCOCCOCC(=O)O

Broadly, the Ki is the equilibrium dissociation constant of an inhibitor or competing ligand from its target.

This experiment has as its target T1, Human Neuropeptide Y2 Receptor (Homo sapiens, UniProt P49146).
T1 construct: purchased CHEMICON HTS066M
T1 sequence (P49146 1-381): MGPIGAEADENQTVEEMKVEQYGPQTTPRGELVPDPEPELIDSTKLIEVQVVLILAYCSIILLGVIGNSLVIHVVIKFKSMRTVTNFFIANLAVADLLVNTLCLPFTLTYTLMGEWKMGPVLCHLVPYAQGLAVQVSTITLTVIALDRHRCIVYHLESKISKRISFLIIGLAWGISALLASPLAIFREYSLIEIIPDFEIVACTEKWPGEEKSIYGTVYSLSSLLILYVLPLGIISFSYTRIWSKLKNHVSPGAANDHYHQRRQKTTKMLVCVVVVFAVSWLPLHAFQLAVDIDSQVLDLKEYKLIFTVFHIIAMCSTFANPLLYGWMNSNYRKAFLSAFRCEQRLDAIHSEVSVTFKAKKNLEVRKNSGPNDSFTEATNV
The experiment is described as follows: Radioligand binding competition assay (RLB). Conditions: Table 3; human 125I-PYY (1-36) 0.02 nM, Y2 receptor membranes; read-out: Ki. The gist of the method:
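IC50 values come from nonlinear regression of sigmoidal dose-response curves of filter-bound radioactivity. Peptides competed with radioligand at human Y2 receptor membranes (0.5 μg protein/well) for 2 h at room temperature in pH 7.4 HEPES buffer containing Mg2+, Ca2+ and 0.2% ovalbumin.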
In the case of `CC(C)CC(=O)N[C@@H](C)C(=O)N1CCC[C@H]1C(=O)N[C@@H](CCC(=O)O)C(=O)N[C@@H](CCCCNC(=O)COCCOCCNC(=O)COCCOCCNC(=O)CC[C@H](NC(=O)CCCCCCCCCCCCCCCCC(=O)O)C(=O)O)C(=O)N1CCC[C@H]1C(=O)N[C@@H](CCC(=O)O)C(=O)N[C@@H](CCC(=O)O)C(=O)N[C@@H](CC(=O)O)C(=O)N[C@@H](C)C(=O)N[C@@H](C)C(=O)N1CCC[C@H]1C(=O)N[C@@H](CCC(=O)O)C(=O)N[C@@H](CCC(=O)O)C(=O)N[C@H](C(=O)N[C@@H](CCC(N)=O)C(=O)N[C@@H](CCCNC(=N)N)C(=O)N[C@@H](Cc1ccc(O)cc1)C(=O)N[C@@H](Cc1ccc(O)cc1)C(=O)N[C@H](C(=O)N[C@@H](CO)C(=O)N[C@@H](CC(C)C)C(=O)N[C@@H](CCCNC(=N)N)C(=O)N[C@@H](Cc1c[nH]cn1)C(=O)N[C@@H](Cc1ccc(O)cc1)C(=O)N[C@@H](Cc1ccc(O)cc1)C(=O)N[C@@H](CC(N)=O)C(=O)N[C@@H](Cc1c[nH]c2ccccc12)C(=O)N[C@@H](CC(C)C)C(=O)N[C@H](C(=O)N[C@@H](CCCNC(=N)N)C(=O)N[C@@H](CCC(N)=O)C(=O)N[C@@H](CCCNC(=N)N)C(=O)N[C@@H](Cc1ccc(O)cc1)C(N)=O)[C@@H](C)O)C(C)C)[C@@H](C)O` [Compound 35, N{alpha-4}-(3-methylbutanoyl)-N{epsilon-7}-[2-(2-{2-[2-(2-{2-[(4S)-4-carboxy-4-(17-carboxyheptadecanamido)butanamido]ethoxy}ethoxy)acetamido]ethoxy}ethoxy)acetamido]-[4A,7K,9E,13A,17T,18Q,22V,28Y,30W,31L]hPYY (4-36)], the Ki came out at 1.21 nM. To `CC(C)CC(=O)N[C@@H](C)C(=O)N1CCC[C@H]1C(=O)N[C@@H](CCC(=O)O)C(=O)N[C@@H](CCCCNC(=O)COCCOCCNC(=O)COCCOCCNC(=O)CC[C@H](NC(=O)CCCCCCCCCCCCCCCCC(=O)O)C(=O)O)C(=O)N1CCC[C@H]1C(=O)N[C@@H](CCC(=O)O)C(=O)N[C@@H](CCC(=O)O)C(=O)N[C@@H](C)C(=O)N[C@@H](C)C(=O)N[C@@H](CO)C(=O)N1CCC[C@H]1C(=O)N[C@@H](CCC(=O)O)C(=O)N[C@@H](CCC(=O)O)C(=O)N[C@@H](CC(C)C)C(=O)N[C@@H](CCC(N)=O)C(=O)N[C@@H](CCCNC(=N)N)C(=O)N[C@@H](Cc1ccc(O)cc1)C(=O)N[C@@H](CCC(=O)O)C(=O)N[C@H](C(=O)N[C@@H](CO)C(=O)N[C@@H](CC(C)C)C(=O)N[C@@H](CCCNC(=N)N)C(=O)N[C@@H](Cc1c[nH]cn1)C(=O)N[C@@H](Cc1ccc(O)cc1)C(=O)N[C@@H](Cc1ccc(O)cc1)C(=O)N[C@@H](CC(N)=O)C(=O)N[C@@H](Cc1c[nH]c2ccccc12)C(=O)N[C@@H](CC(C)C)C(=O)N[C@H](C(=O)N[C@@H](CCCNC(=N)N)C(=O)N[C@@H](CCC(N)=O)C(=O)N[C@@H](CCCNC(=N)N)C(=O)N[C@@H](Cc1ccc(O)cc1)C(N)=O)[C@@H](C)O)C(C)C` [Compound 70, N{alpha-4}-(3-methylbutanoyl)-N{epsilon-7}-[2-(2-{2-[2-(2-{2-[(4S)-4-carboxy-4-(17-carboxyheptadecanamido)butanamido]ethoxy}ethoxy)acetamido]ethoxy}ethoxy)acetamido]-[4A,7K,9E,11A,18Q,21E,22V,28Y,30W,31L]hPYY (4-36)] (Isovaleryl-APEK([AEEA-AEEA-γGlu-C18 diacid])PEEAASPEELQRYEVSLRHYYNWLTRQRY-NH2) belongs 4.86 nM; to `CC(C)CC(=O)N[C@@H](C)C(=O)N1CCC[C@H]1C(=O)N[C@@H](C)C(=O)N[C@@H](CCCCNC(=O)COCCOCCNC(=O)COCCOCCNC(=O)CC[C@H](NC(=O)CCCCCCCCCCCCCCCCC(=O)O)C(=O)O)C(=O)N1CCC[C@H]1C(=O)N[C@@H](CCC(=O)O)C(=O)N[C@@H](CCC(=O)O)C(=O)N[C@@H](CC(=O)O)C(=O)N[C@@H](CO)C(=O)N[C@@H](CO)C(=O)N1CCC[C@H]1C(=O)N[C@@H](CCC(=O)O)C(=O)N[C@@H](CCC(=O)O)C(=O)N[C@@H](CC(C)C)C(=O)N[C@@H](CCC(N)=O)C(=O)N[C@@H](CCCNC(=N)N)C(=O)N[C@@H](Cc1ccc(O)cc1)C(=O)N[C@@H](Cc1ccc(O)cc1)C(=O)N[C@H](C(=O)N[C@@H](CO)C(=O)N[C@@H](CC(C)C)C(=O)N[C@@H](CCCNC(=N)N)C(=O)N[C@@H](Cc1c[nH]cn1)C(=O)N[C@@H](Cc1ccc(O)cc1)C(=O)N[C@@H](Cc1ccc(O)cc1)C(=O)N[C@@H](CC(N)=O)C(=O)N[C@@H](Cc1c[nH]c2ccccc12)C(=O)N[C@@H](CC(C)C)C(=O)N[C@H](C(=O)N[C@@H](CCCNC(=N)N)C(=O)N[C@@H](CCC(N)=O)C(=O)N[C@@H](CCCNC(=N)N)C(=O)N[C@@H](Cc1ccc(O)cc1)C(N)=O)[C@@H](C)O)C(C)C` [Compound 126, N{alpha-4}-(3-methylbutanoyl)-N{epsilon-7}-[2-(2-{2-[2-(2-{2-[(4S)-4-carboxy-4-(17-carboxyheptadecanamido)butanamido]ethoxy}ethoxy)acetamido]ethoxy}ethoxy)acetamido]-[4A,6A,7K,9E,12S,18Q,22V,28Y,30W,31L]hPYY (4-36)], 1.18 nM; to `CC(C)CC(=O)N[C@@H](C)C(=O)N1CCC[C@H]1C(=O)N[C@@H](CCC(=O)O)C(=O)N[C@@H](CCCCNC(=O)COCCOCCNC(=O)COCCOCCNC(=O)CC[C@H](NC(=O)CCCCCCCCCCCCCCCCC(=O)O)C(=O)O)C(=O)N1CCC[C@H]1C(=O)N[C@@H](CCC(=O)O)C(=O)N[C@@H](C)C(=O)N[C@@H](CC(=O)O)C(=O)N[C@@H](C)C(=O)N[C@@H](CO)C(=O)N1CCC[C@H]1C(=O)N[C@@H](CCC(=O)O)C(=O)N[C@@H](CCC(=O)O)C(=O)N[C@@H](CC(C)C)C(=O)N[C@@H](CCC(N)=O)C(=O)N[C@@H](CCCNC(=N)N)C(=O)N[C@@H](Cc1ccc(O)cc1)C(=O)N[C@@H](CCC(=O)O)C(=O)N[C@H](C(=O)N[C@@H](CO)C(=O)N[C@@H](CC(C)C)C(=O)N[C@@H](CCCNC(=N)N)C(=O)N[C@@H](Cc1c[nH]cn1)C(=O)N[C@@H](Cc1ccc(O)cc1)C(=O)N[C@@H](Cc1ccc(O)cc1)C(=O)N[C@@H](CC(N)=O)C(=O)N[C@@H](Cc1c[nH]c2ccccc12)C(=O)N[C@@H](CC(C)C)C(=O)N[C@H](C(=O)N[C@@H](CCCNC(=N)N)C(=O)N[C@@H](CCC(N)=O)C(=O)N[C@@H](CCCNC(=N)N)C(=O)N[C@@H](Cc1ccc(O)cc1)C(N)=O)[C@@H](C)O)C(C)C` [Compound 86, N{alpha-4}-(3-methylbutanoyl)-N{epsilon-7}-[2-(2-{2-[2-(2-{2-[(4S)-4-carboxy-4-(17-carboxyheptadecanamido)butanamido]ethoxy}ethoxy)acetamido]ethoxy}ethoxy)acetamido]-[4A,7K,9E,10A,18Q,21E,22V,28Y,30W,31L]hPYY (4-36)] (Isovaleryl-APEK([AEEA-AEEA-γGlu-C18 diacid])PEADASPEELQRYEVSLRHYYNWLTRQRY-NH2), 1.19 nM. Turning to `CC(C)CC(=O)N[C@@H](C)C(=O)N1CCC[C@H]1C(=O)N[C@@H](C)C(=O)N[C@@H](CCCCNC(=O)COCCOCCNC(=O)COCCOCCNC(=O)CC[C@H](NC(=O)CCCCCCCCCCCCCCCCC(=O)O)C(=O)O)C(=O)N1CCC[C@H]1C(=O)N1CCC[C@H]1C(=O)N[C@@H](CCC(=O)O)C(=O)N[C@@H](CC(=O)O)C(=O)N[C@@H](C)C(=O)N[C@@H](CCC(=O)O)C(=O)N1CCC[C@H]1C(=O)N[C@@H](CCC(=O)O)C(=O)N[C@@H](CCC(=O)O)C(=O)N[C@@H](CC(C)C)C(=O)N[C@@H](CCC(N)=O)C(=O)N[C@@H](CCCNC(=N)N)C(=O)N[C@@H](Cc1ccc(O)cc1)C(=O)N[C@@H](Cc1ccc(O)cc1)C(=O)N[C@H](C(=O)N[C@@H](CO)C(=O)N[C@@H](CC(C)C)C(=O)N[C@@H](CCCNC(=N)N)C(=O)N[C@@H](Cc1c[nH]cn1)C(=O)N[C@@H](Cc1ccc(O)cc1)C(=O)N[C@@H](Cc1ccc(O)cc1)C(=O)N[C@@H](CC(N)=O)C(=O)N[C@@H](Cc1c[nH]c2ccccc12)C(=O)N[C@@H](CC(C)C)C(=O)N[C@H](C(=O)N[C@@H](CCCNC(=N)N)C(=O)N[C@@H](CCC(N)=O)C(=O)N[C@@H](CCCNC(=N)N)C(=O)N[C@@H](Cc1ccc(O)cc1)C(N)=O)[C@@H](C)O)C(C)C` [Compound 196, N{alpha-4}-(3-methylbutanoyl)-N{epsilon-7}-[2-(2-{2-[2-(2-{2-[(4S)-4-carboxy-4-(17-carboxyheptadecanamido)butanamido]ethoxy}ethoxy)acetamido]ethoxy}ethoxy)acetamido]-[4A,6A,7K,9P,13E,18Q,22V,28Y,30W,31L]hPYY (4-36)], the Ki worked out at 0.98 nM.
